Test results published in patent US9695155B2, “Herbicidal substituted pyrimidinyloxy benzene compounds” (E. I. DU PONT DE NEMOURS AND COMPANY, priority 2013, dated 2017).

What was measured:
large (Lg) crabgrass = assay: Test C postemergence; type: in vivo, Digitaria sanguinalis; settings: for Crabgrass, Large plant response rating: 31 g ai/ha; for Crabgrass, Large plant response rating / Plant response rating, Crabgrass, Large: scale 0 to 100 (0 no effect, 100 complete control)
Procedure, shortened: (§1)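 Seeds were sown in loam–sand blend and sprayed preemergence, while plants at 1- to 4-leaf stage (2–18 cm) in peat-based medium received postemergence sprays; test chemicals were formulated in a non-phytotoxic solvent with surfactant. After 13–15 days in a greenhouse, injury was rated visually against controls, 0 (no effect) to 100 (complete control).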

barnyardgrass [1] = assay: Test C postemergence; type: in vivo, Echinochloa crus-galli; settings: for Barnyardgrass plant response rating: 31 g ai/ha, 13 to 15 days; for Barnyardgrass plant response rating / Plant response rating, Barnyardgrass: scale 0 to 100 (0 no effect, 100 complete control)
Procedure, shortened: as §1

oilseed rape [2] = assay: Test C preemergence; type: in vivo, Brassica napus; settings: for Oilseed Rape plant response rating: preemergence; for Plant response rating, Oilseed Rape: Preemergence, 62 g ai/ha, scale 0 to 100, 0 no effect, 100 complete control
Procedure, shortened: as §1

sedge, umbrella = assay: Test B flooded paddy test; type: in vivo, Cyperus difformis; settings: Flood, 250 g ai/ha; 0 to 100 scale where 0 is no effect and 100 is complete control
Procedure, shortened: (§2)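 Plants at 2-leaf stage; pots flooded to 3 cm above soil and compound applied directly into paddy water, depth held throughout. After 13 to 15 days in greenhouse, visual rating versus controls on 0 (no effect) to 100 (complete control) scale.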

velvetleaf [3] = assay: Test A postemergence; type: in vivo, Abutilon theophrasti; settings: 0 to 100 scale where 0 is no effect and 100 is complete control; for Velvetleaf plant response rating: 125 g ai/ha; for Plant response rating, Velvetleaf: 500 g ai/ha
Procedure, shortened: (§3)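 Pre- and postemergence greenhouse screen. Soil: loam + sand. Spray carrier: solvent mixture, non-phytotoxic, with surfactant. Post timing at 1–2 leaves, height 2–10 cm. Readout: visual injury on a 0–100 scale roughly 10 days after application, untreated plants as reference.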

soybean = assay: Test C postemergence; type: in vivo, Glycine max; settings: for Soybean plant response rating: 31 g ai/ha; for Soybean plant response rating / Plant response rating, Soybean: scale 0 to 100 (0 no effect, 100 complete control)
Procedure, shortened: as §1

oilseed rape [4] = assay: Test C postemergence; type: in vivo, Brassica napus; settings: for Oilseed Rape plant response rating: 31 g ai/ha; for Oilseed Rape plant response rating / Plant response rating, Oilseed Rape: scale 0 to 100 (0 no effect, 100 complete control)
Procedure, shortened: as §1

giant foxtail = assay: Test C preemergence; type: in vivo, Setaria faberii; settings: for Foxtail, Giant plant response rating: preemergence; for Plant response rating, Foxtail, Giant: Preemergence, 62 g ai/ha, scale 0 to 100, 0 no effect, 100 complete control
Procedure, shortened: as §1

waterhemp = assay: Test C postemergence; type: in vivo, Amaranthus rudis; settings: for Waterhemp plant response rating: 31 g ai/ha; for Waterhemp plant response rating / Plant response rating, Waterhemp: scale 0 to 100 (0 no effect, 100 complete control)
Procedure, shortened: as §1

corn = assay: Test C preemergence; type: in vivo, Zea mays; settings: for Corn plant response rating: preemergence; for Plant response rating, Corn: Preemergence, 62 g ai/ha, scale 0 to 100, 0 no effect, 100 complete control
Procedure, shortened: as §1

wheat = assay: Test A preemergence; type: in vivo, Triticum aestivum; settings: for Wheat plant response rating (0 to 100 scale): 125 g ai/ha; for Wheat plant response rating: 500 g ai/ha, 0 to 100 scale where 0 is no effect and 100 is complete control
Procedure, shortened: as §3

barnyardgrass [5] = assay: Test B flooded paddy test; type: in vivo, Echinochloa crus-galli; settings: Flood, 250 g ai/ha; 0 to 100 scale where 0 is no effect and 100 is complete control
Procedure, shortened: as §2

velvetleaf [6] = assay: Test C postemergence; type: in vivo, Abutilon theophrasti; settings: for Velvetleaf plant response rating: 31 g ai/ha; for Velvetleaf plant response rating / Plant response rating, Velvetleaf: scale 0 to 100 (0 no effect, 100 complete control)
Procedure, shortened: as §1

morningglory = assay: Test A preemergence; type: in vivo, Ipomoea spp.; settings: for Morningglory plant response rating (0 to 100 scale): 125 g ai/ha; for Morningglory plant response rating: 500 g ai/ha, 0 to 100 scale where 0 is no effect and 100 is complete control
Procedure, shortened: as §3

barnyardgrass [7] = assay: Test C preemergence; type: in vivo, Echinochloa crus-galli; settings: for Barnyardgrass plant response rating: preemergence; for Plant response rating, Barnyardgrass: Preemergence, 62 g ai/ha, scale 0 to 100, 0 no effect, 100 complete control
Procedure, shortened: as §1

[8] = postemergence, visual rating, 13 to 15 days
[9] = 125 g ai/ha, postemergence, visual rating
[10] = Postemergence, 62 g ai/ha, 13 to 15 days
[11] = 125 g ai/ha, scale 0 (no effect) to 100 (complete control)
[12] = 250 g ai/ha, scale 0 (no effect) to 100 (complete control)
[13] = 16 g ai/ha, postemergence, 0 is no effect, 100 is complete control
[14] = 16 g ai/ha, scale 0 to 100 (0 no effect, 100 complete control)

## N#Cc1cccc(Oc2ncc(Cl)cn2)c1-n1cc(I)cn1 [Compound 204]
Large (Lg) crabgrass; [8]
  Crabgrass, Large plant response rating: 5
Large (Lg) crabgrass; [9]
  Plant response rating, Crabgrass, Large: 15
Large (Lg) crabgrass; 250 g ai/ha, postemergence
  Plant response rating (0 to 100), Crabgrass, Large: 65
Large (Lg) crabgrass; [10]
  Plant response rating, Crabgrass, Large: 10
Barnyardgrass [1]; postemergence, visual rating
  Barnyardgrass plant response rating: 5
Barnyardgrass [1]; [9]
  Plant response rating, Barnyardgrass: 5
Barnyardgrass [1]; 250 g ai/ha, postemergence
  Plant response rating (0 to 100), Barnyardgrass: 35
Barnyardgrass [1]; Postemergence, 62 g ai/ha
  Plant response rating, Barnyardgrass: 10
Oilseed rape [2]; [11]
  Oilseed Rape plant response rating: 98
Oilseed rape [2]; [12]
  Oilseed Rape plant response rating: 100
Oilseed rape [2]
  Plant response rating, Oilseed Rape: 95
sedge, umbrella
  Plant response rating, Sedge, Umbrella: 90
Velvetleaf [3]
  Velvetleaf plant response rating: 100
  Plant response rating, Velvetleaf: 100
soybean; [8]
  Soybean plant response rating: 70
soybean; [9]
  Plant response rating, Soybean: 95
soybean; 250 g ai/ha, postemergence
  Plant response rating (0 to 100), Soybean: 95
soybean; [10]
  Plant response rating, Soybean: 95
Oilseed rape [4]; [8]
  Oilseed Rape plant response rating: 40
Oilseed rape [4]; [9]
  Plant response rating, Oilseed Rape: 85
Oilseed rape [4]; 250 g ai/ha, postemergence
  Plant response rating (0 to 100), Oilseed Rape: 75
Oilseed rape [4]; [10]
  Plant response rating, Oilseed Rape: 70
Giant foxtail; [11]
  Foxtail, Giant plant response rating: 100
Giant foxtail; [12]
  Foxtail, Giant plant response rating: 100
Giant foxtail
  Plant response rating, Foxtail, Giant: 98
waterhemp; [8]
  Waterhemp plant response rating: 85
waterhemp; [9]
  Plant response rating, Waterhemp: 90
waterhemp; 250 g ai/ha, postemergence
  Plant response rating (0 to 100), Waterhemp: 95
waterhemp; [10]
  Plant response rating, Waterhemp: 90
corn; [11]
  Corn plant response rating: 5
corn; [12]
  Corn plant response rating: 35
corn
  Plant response rating, Corn: 0
wheat
  Wheat plant response rating (0 to 100 scale): 40
  Wheat plant response rating: 60
Barnyardgrass [5]
  Plant response rating, Barnyardgrass: 20
Velvetleaf [6]; [8]
  Velvetleaf plant response rating: 35
Velvetleaf [6]; [9]
  Plant response rating, Velvetleaf: 60
Velvetleaf [6]; 250 g ai/ha, postemergence
  Plant response rating (0 to 100), Velvetleaf: 70
Velvetleaf [6]; [10]
  Plant response rating, Velvetleaf: 40
morningglory
  Morningglory plant response rating (0 to 100 scale): 90
  Morningglory plant response rating: 90
Barnyardgrass [7]; [11]
  Barnyardgrass plant response rating: 100
Barnyardgrass [7]; [12]
  Barnyardgrass plant response rating: 100
Barnyardgrass [7]
  Plant response rating, Barnyardgrass: 95

## N#Cc1cnn(-c2c(Oc3ncc(Cl)cn3)cccc2C(F)F)c1 [Compound 236]
Large (Lg) crabgrass; [13]
  Plant response rating (0 to 100), Crabgrass, Large: 5
Large (Lg) crabgrass; [8]
  Crabgrass, Large plant response rating: 5
Large (Lg) crabgrass; [9]
  Plant response rating, Crabgrass, Large: 5
Large (Lg) crabgrass; [10]
  Plant response rating, Crabgrass, Large: 5
Barnyardgrass [1]; [13]
  Plant response rating (0 to 100), Barnyardgrass: 5
Barnyardgrass [1]; postemergence, visual rating
  Barnyardgrass plant response rating: 5
Barnyardgrass [1]; [9]
  Plant response rating, Barnyardgrass: 10
Barnyardgrass [1]; Postemergence, 62 g ai/ha
  Plant response rating, Barnyardgrass: 5
Oilseed rape [2]; [14]
  Oilseed Rape plant response rating: 80
Oilseed rape [2]; [11]
  Oilseed Rape plant response rating: 100
Oilseed rape [2]
  Plant response rating, Oilseed Rape: 100
sedge, umbrella
  Plant response rating, Sedge, Umbrella: 100
Velvetleaf [3]
  Velvetleaf plant response rating: 90
  Plant response rating, Velvetleaf: 100
soybean; [13]
  Plant response rating (0 to 100), Soybean: 60
soybean; [8]
  Soybean plant response rating: 75
soybean; [9]
  Plant response rating, Soybean: 95
soybean; [10]
  Plant response rating, Soybean: 85
Oilseed rape [4]; [13]
  Plant response rating (0 to 100), Oilseed Rape: 30
Oilseed rape [4]; [8]
  Oilseed Rape plant response rating: 10
Oilseed rape [4]; [9]
  Plant response rating, Oilseed Rape: 65
Oilseed rape [4]; [10]
  Plant response rating, Oilseed Rape: 30
Giant foxtail; [14]
  Foxtail, Giant plant response rating: 35
Giant foxtail; [11]
  Foxtail, Giant plant response rating: 100
Giant foxtail
  Plant response rating, Foxtail, Giant: 100
waterhemp; [13]
  Plant response rating (0 to 100), Waterhemp: 70
waterhemp; [8]
  Waterhemp plant response rating: 70
waterhemp; [9]
  Plant response rating, Waterhemp: 90
waterhemp; [10]
  Plant response rating, Waterhemp: 90
corn; [14]
  Corn plant response rating: 0
corn; [11]
  Corn plant response rating: 90
corn
  Plant response rating, Corn: 10
wheat
  Wheat plant response rating (0 to 100 scale): 0
  Wheat plant response rating: 100
Barnyardgrass [5]
  Plant response rating, Barnyardgrass: 30
Velvetleaf [6]; [13]
  Plant response rating (0 to 100), Velvetleaf: 55
Velvetleaf [6]; [8]
  Velvetleaf plant response rating: 65
Velvetleaf [6]; [9]
  Plant response rating, Velvetleaf: 80
Velvetleaf [6]; [10]
  Plant response rating, Velvetleaf: 85
morningglory
  Morningglory plant response rating (0 to 100 scale): 30
  Morningglory plant response rating: 100
Barnyardgrass [7]; [14]
  Barnyardgrass plant response rating: 10
Barnyardgrass [7]; [11]
  Barnyardgrass plant response rating: 100
Barnyardgrass [7]
  Plant response rating, Barnyardgrass: 98
